Measured values as given in US20250179584A1, “PRECISION THERAPY FOR THE TREATMENT OF CANCER” (Novartis AG, priority 2022, published 2025).

What was measured:
[1] = tested on: KRAS G12, G13C and G13D mutant NSCLC; conditions: single agent, second line; cited from earlier work
[2] = tested on: advanced melanoma with NRAS mutation; conditions: trametinib monotherapy, 7 patients with NRAS mutation; cited from earlier work
[3] = tested on: cell lines that contain a variety of mutations that activate MAPK signaling; conditions: cited from earlier work
[4] = tested on: solid tumors (salivary gland tumor and NSCLC) harboring pan-RAS codon Q61 or G13R mutations; format: in vivo, human; conditions: LXH254 single agent
KRAS-mutant models = conditions: several KRAS-mutant models, well-tolerated doses; cited from earlier work
[5] = tested on: pan-RAS codon Q61/G13R mutant models (NSCLC, melanoma, PDAC, rhabdomyosarcomas); conditions: independently of the mutated RAS gene and tissue origin
NRAS mutated melanoma [6] = format: in vivo, human; conditions: single agent, 10 patients, doses 400-1200 qd and 200-800 bid, data cut May 31, 2021
From the text: Clinical data further supports the pre-clinical findings.

[7] = tested on: unresectable stage III/IV metastatic melanoma resistant to anti-PD (L)-1 therapy; conditions: monotherapy, 162 patients, cited from earlier work
[8] = tested on: BRAF mutant and CRAF kinases; conditions: cited from earlier work
NRAS mutated melanoma [9] = conditions: cited from earlier work

CC(=O)Nc1cccc(-n2c(=O)n(C3CC3)c(=O)c3c(Nc4ccc(I)cc4F)n(C)c(=O)c(C)c32)c1 [trametinib, N-(3-{3-cyclopropyl-5-[(2-fluoro-4-iodophenyl)amino]-6,8-dimethyl-2,4,7-trioxo-3,4,6,7-tetrahydropyrido[4,3-d]pyrimidin-1 (2H)-yl}phenyl) acetamide]
superiority against standard of care docetaxel [1]: failed to demonstrate superiority
responses [2]: no responses

Cc1ccc(NC(=O)c2ccnc(C(F)(F)F)c2)cc1-c1cc(OCCO)nc(N2CCOCC2)c1 [naporafenib, N-(3-(2-(2-hydroxyethoxy)-6-morpholino-pyridin-4-yl)-4-methylphenyl)-2-(trifluoromethyl) isonicotinamide]
anti-proliferative activity [3]: demonstrated anti-proliferative activity
response to single agent therapy [4]: exceptional responders
tumor response in vivo (KRAS-mutant models): tumor regression
activity in non-clinical models [5]: consistent activity
SDs (stable disease) (NRAS mutated melanoma [6]): 4
responses (NRAS mutated melanoma [6]): no responses

Ipilimumab: anti-CTLA-4 therapy
objective response rate (ORR) ([7]; irrespective of mutation status): 13%
median overall survival (mOS) [7]: 8.8 months
median progression free survival (PFS) [7]: 2.6 months

Cc1ccc2c(Nc3cccc(Cl)c3F)nccc2c1NC(=O)c1csc2c(N)ncnc12 [Belvarafenib, 4-amino-N-(1-((3-chloro-2-fluorophenyl)amino)-6-methylisoquinolin-5-yl) thieno[3,2-d]pyrimidine-7-carboxamide]
selectivity [8]: high selectivity

Cn1cnc2c(F)c(Nc3ccc(Br)cc3F)c(C(=O)NOCCO)cc21 [binimetinib]
ORR (NRAS mutated melanoma [9]; 402 patients, untreated (~79%) and previously treated with immunotherapy (~21%)): 15%
mOS (NRAS mutated melanoma [9]; 402 patients): 11 months
mPFS (NRAS mutated melanoma [9]; 402 patients): 2.8 months
anti-tumor activity (NRAS mutated melanoma [9]; single agent MEK inhibitor, NEMO study): limited anti-tumor activity
